How the values were obtained:
Assay type in all cases: physicochemical
[1] = Quantum yield (QY) measurement, Hamamatsu C9920 PL Absolute Quantum Yield Measurement System; conditions: in PBS
Method: The quantum yield (QY) was determined at an excitation wavelength of 500 nm and 530 nm for inventive and commercial compounds, as shown below
QY measurements were performed in PBS using a Hamamatsu C9920 PL Absolute Quantum Yield Measurement System. The maximum absorbance at a 1 cm pathlength was set to 0.08. The lower values for the excitation at 530 nm was due to the rising emission which was not included in the counting because it was too close to the excitation light.
The quantum yield (QY) was determined at an excitation wavelength of 600 nm for inventive and commercial compounds, as shown below
QY measurements were performed in PBS using a Hamamatsu C9920 PL Absolute Quantum Yield Measurement System. The maximum absorbance at a 1 cm pathlength was set to 0.08.
The quantum yield (QY) was determined at an excitation wavelength of 710 nm for inventive and commercial compounds, as shown below.
QY measurements were performed in PBS using a Hamamatsu C9920 PL Absolute Quantum Yield Measurement System. The maximum absorbance at a 1 cm path length was set to 0.08.

[2] = Absorption profile and fluorescence intensity of the free dyes; conditions: dyes compared with each other (FIG. 1, 25, 52)
[3] = Storage stability at 50° C. under argon
Method: The inventive compounds were evaluated for stability. All compounds were packed under argon in plastic vials. The vials sere sealed with a drying pad in an aluminium coated pouch, and then stored at 50° C. for seven days. The results of the stability study for selected compounds are shown below:
Purity was determined based on ester activity.
The inventive compounds were evaluated for stability compared to commercial dyes. All compounds were packed under argon as 1 mg portions in plastic vials. The vials sere sealed with a drying pad in an aluminium coated pouch, and then stored at 50° C. for 14 days. The results of the stability study for selected compounds are shown below:
The inventive compound 755 Compound 1 (isomer 1)-NHS was evaluated for stability. The compound was packed under argon in plastic vials. The vials sere sealed with a drying pad in an aluminium coated pouch, and then stored at 50° C. for 14 days. Purity was determined by HPLC before and after storage.

[4] = Spectral properties of the dyes compared with commercially available dyes; conditions: reactive ester form of the dye
[5] = listed as 550 Compound 1(isomer 1)-NHS
[6] = unit size 15 μg, 50° C. for seven days, purity based on ester activity, listed as 550 Compound 1(isomer 1)-NHS
[7] = unit size 50 μg, 50° C. for seven days, purity based on ester activity, listed as 550 Compound 1(isomer 1)-NHS
[8] = unit size 1 mg, 50° C. for seven days, purity based on ester activity
[9] = unit size 15 μg, 50° C. for seven days, purity based on ester activity, listed as 550 Compound 1(isomer 2)-NHS
[10] = unit size 50 μg, 50° C. for seven days, purity based on ester activity, listed as 550 Compound 1(isomer 2)-NHS
[11] = unit size 15 μg, 50° C. for 14 days, purity by HPLC
[12] = unit size 50 μg, 50° C. for 14 days, purity by HPLC
[13] = unit size 60 μg, 50° C. for 14 days, purity by HPLC
[14] = unit size 1 mg, 50° C. for 14 days, purity by HPLC

COCCN1/C(=C/C=C/C2=[N+](CCCCCC(=O)ON3C(=O)CCC3=O)c3ccc(S(=O)(=O)[O-])cc3C2(C)CCCS(=O)(=O)O)C(C)(CCCS(=O)(=O)O)c2cc(S(=O)(=O)O)ccc21 (single isomer, unassigned) [550 Compound 1 (isomer 1)-NHS]
QY excitation at 500 nm [1, 5]: 0.105 | QY excitation at 530 nm [1, 5]: 0.098 | Absorption profile [2]: very similar profiles | Purity at day 1 [3, 6]: 95% | Purity at day 7 [3, 6]: 91% | Purity at day 1 [3, 7]: 95% | Purity at day 7 [3, 7]: 91% | Purity at day 1 [3, 8]: 96% | Purity at day 7 [3, 8]: 93%

COCCN1/C(=C/C=C/C2=[N+](CCCCCC(=O)ON3C(=O)CCC3=O)c3ccc(S(=O)(=O)[O-])cc3C2(C)CCCS(=O)(=O)O)C(C)(CCCS(=O)(=O)O)c2cc(S(=O)(=O)O)ccc21 (single isomer, unassigned) [550 Compound 1 (isomer 2)-NHS]
QY excitation at 500 nm [1]: 0.096 | QY excitation at 530 nm [1]: 0.090 | Absorption profile [2]: very similar profiles | Purity at day 1 [3, 9]: 96% | Purity at day 7 [3, 9]: 94% | Purity at day 1 [3, 10]: 96% | Purity at day 7 [3, 10]: 95%

COCCN1/C(=C/C=C/C=C/C=C/C2=[N+](CCCCCC(=O)ON3C(=O)CCC3=O)c3ccc(S(=O)(=O)[O-])cc3C2(C)CCCS(=O)(=O)O)C(C)(CCCS(=O)(=O)O)c2cc(S(=O)(=O)O)ccc21 (single isomer, unassigned) [755 Compound 1 (isomer 1)-NHS]
Emission (Em) [4]: 776 nm | Excitation (Ex) [4]: 754 nm | ε [4]: 220,000 M−1cm−1 | QY with excitation at 710 nm [1]: 0.119 | Absorption profile [2]: very similar profiles | Purity at day 1 [3, 11]: 99% | Purity at day 14 [3, 11]: 96% | Purity at day 1 [3, 12]: 99% | Purity at day 14 [3, 12]: 97% | Purity at day 1 [3, 13]: 99% | Purity at day 14 [3, 13]: 97% | Purity at day 1 [3, 14]: 99% | Purity at day 14 [3, 14]: 98%

COCCN1/C(=C/C=C/C=C/C=C/C2=[N+](CCCCCC(=O)ON3C(=O)CCC3=O)c3ccc(S(=O)(=O)[O-])cc3C2(C)CCCS(=O)(=O)O)C(C)(CCCS(=O)(=O)O)c2cc(S(=O)(=O)O)ccc21 (single isomer, unassigned) [755 Compound 1 (isomer 2)-NHS]
Emission (Em) [4]: 776 nm | Excitation (Ex) [4]: 754 nm | ε [4]: 220,000 M−1cm−1 | QY with excitation at 710 nm [1]: 0.110 | Absorption profile [2]: very similar profiles

Source: patent publication US10053447B2, “Fluorescent compounds” (Pierce Biotechnology, Inc, priority 2010, dated 2018)
